This note sets out measurements from article PMC10252016, “Mutation in the Common Docking Domain Affects MAP Kinase ERK2 Catalysis and Stability” (Cancers, 2023).

The target in experiment [1] is T1, extracellular-signal-regulated kinase 2 (ERK2) (Homo sapiens, UniProt P28482).
T1 construct: gene MAPK1; recombinant ERK2 wild-type
Nature of the experiment: biochemical. Set-up: Differential scanning fluorimetry, SYPRO Orange, 2 uM ERK2, melting temperature shift with 12 uM inhibitor. As to conditions: for ΔTm at 12 µM: read-out: ΔTm WT.
Experimental: (§1) After 10 min at room temperature, the increase in the fluorescence signal upon the temperature-dependent unfolding of ERK2 proteins was measured with an Mx3005p real-time PCR machine (Stratagene, San Diego, CA, USA).

In experiment [2] the target is T2, D321A (Homo sapiens, UniProt P28482, D321A).
T2 construct: gene MAPK1; recombinant ERK2 D321A
Nature of the experiment: biochemical. Further details: Differential scanning fluorimetry, SYPRO Orange, 2 uM ERK2, melting temperature shift with 12 uM inhibitor. As to conditions: for ΔTm at 12 µM: read-out: ΔTm D321A.
Experimental: as §1

Experiment [3] concerns the target T3, D321E (Homo sapiens, UniProt P28482, D321E).
T3 construct: gene MAPK1; recombinant ERK2 D321E
Nature of the experiment: biochemical. Set-up: Differential scanning fluorimetry, SYPRO Orange, 2 uM ERK2, melting temperature shift with 12 uM inhibitor. As to conditions: for ΔTm at 12 µM: read-out: ΔTm D321E.
Experimental: as §1

The target in experiment [4] is T4, D321G (Homo sapiens, UniProt P28482, D321G).
T4 construct: gene MAPK1; recombinant ERK2 D321G
The experiment in a line: biochemical. As to conditions: for ΔTm at 12 µM: read-out: ΔTm D321G. Set-up: Differential scanning fluorimetry, SYPRO Orange, 2 uM ERK2, melting temperature shift with 12 uM inhibitor.
Experimental: as §1

Experiment [5] deals with T5, D321N (Homo sapiens, UniProt P28482, D321N).
T5 construct: gene MAPK1; recombinant ERK2 D321N
Nature of the experiment: biochemical. Further details: Differential scanning fluorimetry, SYPRO Orange, 2 uM ERK2, melting temperature shift with 12 uM inhibitor. The settings on record: for ΔTm at 12 µM: read-out: ΔTm D321N.
Experimental: as §1

Experiment [6] addresses T6, D321V (Homo sapiens, UniProt P28482, D321V).
T6 construct: gene MAPK1; recombinant ERK2 D321V
The experiment in a line: biochemical. Further details: Differential scanning fluorimetry, SYPRO Orange, 2 uM ERK2, melting temperature shift with 12 uM inhibitor. As to conditions: for ΔTm at 12 µM: read-out: ΔTm D321V.
Experimental: (§2) After 10 min at room temperature, the increase in the fluorescence signal upon the temperature-dependent unfolding of ERK2 proteins was measured with an Mx3005p real-time PCR machine (Stratagene, San Diego, CA, USA). The ∆Tm shifts were calculated, as described, in [36].

In experiment [7] the target is T7, extracellular-signal-regulated kinase 2 (ERK2) E322K (Homo sapiens, UniProt P28482, E322K).
T7 construct: gene MAPK1; recombinant ERK2 E322K
Nature of the experiment: biochemical. As to conditions: for ΔTm at 12 µM: read-out: ΔTm E322K. Set-up: Differential scanning fluorimetry, SYPRO Orange, 2 uM ERK2, melting temperature shift with 12 uM inhibitor.
Experimental: as §2

The target of experiment [8] is T8, non-phosphorylated ERK2 wild-type (extracellular-signal-regulated kinase 2) (human, UniProt P28482 1-360).
T8 construct: ERK2 (MAPK1), human, wild-type; Expressed from pNIC28-Bsa4; also called NP-ERK2 wild-type; NP-ERK2; source: E. coli Rosetta with phosphatase, purified (Ni-NTA, TEV cleavage, second Ni-NTA); not shown: His6, N-terminal, cleaved
The experiment in a line: ITC; Affinity ITC (TA-Instruments), reversed mode: ERK2 protein (90-145 µM) in the cell, peptide (500 µM) in the syringe; 30 °C; 20 mM Hepes pH 7.5, 0.15 M NaCl, 0.5 mM TCEP; single binding site model. The settings on record: both partners purified. In general terms: ITC needs no label: the signal is the heat of the interaction.

Experiment [9] has as its target T9, phosphorylated ERK2 wild-type (human, UniProt P28482 1-360, phosphorylated at Thr185 and Tyr187).
T9 construct: ERK2 (MAPK1), human, wild-type, phosphorylated on T185 and Y187 by co-expressed active MEK1; also called P-ERK2 wild-type; P-ERK2; not shown: His6, N-terminal, cleaved
The experiment is described as above. As to conditions: both partners purified.

With `Cn1nccc1Nc1nccc(-c2ccn([C@H](CO)c3ccc(Cl)c(F)c3)c(=O)c2)n1` [GDC-0994], in experiment [1] (12 µM, binder), the “ΔTm WT” value stood at 10.30 °C. The “ΔTm D321A” value in [2] (12 µM, binder) is 10.70 °C. The “ΔTm D321E” value in experiment [3] (12 µM, binder) worked out at 11.20 °C. Further, in experiment [4] (12 µM, binder), the “ΔTm D321G” value was determined as 11.80 °C. For the same molecule, the “ΔTm D321N” value in [5] (12 µM, binder) was determined as 12.20 °C. In addition, the “ΔTm D321V” value in [6] (12 µM, binder) amounted to 10.30 °C. In [7] (12 µM, binder), the “ΔTm E322K” value turned out to be 6.80 °C.

For the molecule `Nc1[nH]nc2nnc(-c3c(-c4ccccc4)nn4ccccc34)cc12` [FR 180204], the ΔTm (as a rule, the shift of the melting midpoint relative to a reference) at 12 µM in experiment [1] came to 2.8 °C; in experiment [2], 3.2 °C; in experiment [3] it was 3.7 °C; in experiment [4] it was 4.6 °C; in experiment [5] it was 5.4 °C; in [6], 5 °C. The ΔTm at 12 µM in [7] was -1.3 °C.

In the case of `CC(C)Nc1cc(-c2c[nH]c(C(=O)N[C@H](CO)c3cccc(Cl)c3)c2)c(Cl)cn1` [Ulixertinib], the ΔTm at 12 µM is 7.9 °C in experiment [1]; 8.3 °C in experiment [2]; 8.8 °C in [3]; 9.1 °C in experiment [4]; 9.5 °C in [5]; 8.3 °C in experiment [6]. In experiment [7], the ΔTm at 12 µM turned out to be 4.6 °C.

In the case of `O=C1Nc2cc3[nH]nc(-c4ccncc4)c3cc2CN1Cc1ccccc1` [KO-947], the ΔTm at 12 µM in [1] amounted to 11.8 °C; in experiment [2] it was 12.3 °C; in experiment [3], 12.8 °C; in experiment [4] it was 13.1 °C; in experiment [5] it was 13.6 °C; in experiment [6], 11.8 °C. Further, in experiment [7], the ΔTm at 12 µM turned out to be 9.2 °C.

For `COC[C@H]1Cn2cc(-c3nc(Nc4ccnn4C)ncc3C)nc2C(=O)N1Cc1ccc(F)c(F)c1` [AZD0364], the ΔTm at 12 µM came out at 12.8 °C in experiment [1]; 13.3 °C in [2]; 13.7 °C in [3]; 13.9 °C in experiment [4]; 14.5 °C in experiment [5]; 13 °C in [6]. For the same molecule, in [7], the ΔTm at 12 µM was determined as 10.2 °C.

In the case of `Cn1nccc1Nc1nccc(-c2cc3c(s2)C(C)(C)N(CCN2CCOCC2)C3=O)n1` [LY3214996], the ΔTm at 12 µM in experiment [1] stood at 9.4 °C; in experiment [2], 9.8 °C; in experiment [3] it was 10.3 °C; in experiment [4], 10.8 °C; in experiment [5], 11.2 °C; in experiment [6], 10 °C. For the same molecule, in [7], the ΔTm at 12 µM is 6.6 °C.

In the case of `O=C(Nc1ccc2[nH]nc(-c3ccncc3)c2c1)[C@@H]1CCN(CC(=O)N2CCN(c3ccc(-c4ncccn4)cc3)CC2)C1` [SCH772984], the ΔTm at 12 µM in [1] came to 11.6 °C; in [2], 11 °C; in [3], 11.7 °C; in experiment [4], 12.2 °C; in experiment [5], 12.7 °C; in [6] it was 11.6 °C. Moreover, in experiment [7], the ΔTm at 12 µM worked out at 8.7 °C.

B1: pepMEK2, docking peptide derived from the upstream activating kinase MEK2 (peptide)
peptide: MLARRKPVLPALTINP
notes: docking peptide from MEK2 (MAP2K2), N-terminal stretch; Solubilised in 5% DMSO and diluted in buffer; source: synthetic peptide, bought: GenScript
As for B1, the Kd (usually the concentration at which binding is half-saturated) in experiment [8] stood at 23.7 µM.

B2: Kinase Interaction Motif (KIM) peptide of DUSP6 (peptide)
peptide: GIMLRRLQKGNLPVRAL
notes: Solubilised in 5% DMSO and diluted in buffer; also called KIM of DUSP6; KIM peptide DUSP6; source: synthetic peptide, bought: GenScript
Molecule B2 came in with a dissociation constant Kd in [9] of 14.4 µM.
